Experimental data reported in patent publication US20090232838A1, “Ligands of melanocortin receptors” (priority 2005, published 2009).
Like-named read-outs stand apart in the source and are kept apart here. Where a SMILES comes first, the peptide text is derived from it. Bridges are numbered along the chain shown (N, C = ends). [ ]: non-standard residue; d: D form. d2Nal = N[C@H](Cc1ccc2ccccc2c1)C(=O)O; Bta = N[C@@H](Cc1csc2ccccc12)C(=O)O

Assays:
Type in all cases: cell-based
[1] = target: T1, hMC1-R (Homo sapiens, UniProt Q01726); assay: cyclic AMP bioassay, hMC1-R
T1 construct: expressed in transfected cells; host or cells: CHO-K1
Experimental: (§1) Intracellular cyclic AMP (cAMP) levels were determined by an electrochemiluminescence (ECL) assay (Meso Scale Discovery®, Gaithersburg, Md.; referred to hereinafter as MSD). […] Transgenic CHO-K1 cells stably expressing hMC receptor subtypes 1, 3, 4 or 5 were dispensed at a density of approximately 7,000 cells/well in 384-well Multi-Arrays plates (MSD) containing integrated carbon electrodes and coated with anti-CAMP antibody. Increasing concentrations of the test compounds were added and the cells were incubated for approximately 40 minutes at approximately 37° C. […] At the end of the second incubation period read buffer (Tris-buffered solution containing an ECL co-reactant and Triton X-100 at ph 7.8) was added and the cAMP levels in the cell lysates were immediately determined by ECL detection with a Sector Imager 6000 Reader® (MSD). Data were analyzed using a computer-assisted non-linear regression analysis (XL fit; IDBS) and reported as either an EC50 value or a Kb value.
(§2) The Kb value reflects the potency of an antagonist and is determined by Schild analysis. In brief, concentration-response curves of an agonist are carried out in the presence of increasing concentrations of an antagonist. […] It is calculated by extrapolating the line on a Schild plot to zero on the y-axis.

[2] = target: T2, hMC4-R (Homo sapiens, UniProt P32245); assay: cyclic AMP bioassay, hMC4-R
T2 construct: expressed in transfected cells; host or cells: CHO-K1

[3] = target: T3, hMC5-R (Homo sapiens, UniProt P33032); assay: cyclic AMP bioassay, hMC5-R
T3 construct: expressed in transfected cells; host or cells: CHO-K1
Experimental: as §1, §2

[4] = target: T4, hMC3-R (Homo sapiens, UniProt P41968); assay: cyclic AMP bioassay, hMC3-R
T4 construct: expressed in transfected cells; host or cells: CHO-K1

[5] = Table 3A, cAMP in CHO-K1 cells, antagonist potency by Schild analysis, read-out: Kb hMC4-R
[6] = Table 3A, cAMP in CHO-K1 cells, antagonist potency by Schild analysis, read-out: Kb hMC3-R

T3 sequence (P33032 whole entry): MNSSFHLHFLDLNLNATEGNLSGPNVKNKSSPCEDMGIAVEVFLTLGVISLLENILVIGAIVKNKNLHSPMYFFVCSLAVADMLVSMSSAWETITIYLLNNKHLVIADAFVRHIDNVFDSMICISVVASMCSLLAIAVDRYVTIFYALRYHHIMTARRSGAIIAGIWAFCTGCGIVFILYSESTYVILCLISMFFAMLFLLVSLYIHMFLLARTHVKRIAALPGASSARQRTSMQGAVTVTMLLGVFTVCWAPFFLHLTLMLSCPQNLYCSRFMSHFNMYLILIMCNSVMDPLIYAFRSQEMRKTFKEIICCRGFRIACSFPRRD
T4 sequence (P41968 whole entry): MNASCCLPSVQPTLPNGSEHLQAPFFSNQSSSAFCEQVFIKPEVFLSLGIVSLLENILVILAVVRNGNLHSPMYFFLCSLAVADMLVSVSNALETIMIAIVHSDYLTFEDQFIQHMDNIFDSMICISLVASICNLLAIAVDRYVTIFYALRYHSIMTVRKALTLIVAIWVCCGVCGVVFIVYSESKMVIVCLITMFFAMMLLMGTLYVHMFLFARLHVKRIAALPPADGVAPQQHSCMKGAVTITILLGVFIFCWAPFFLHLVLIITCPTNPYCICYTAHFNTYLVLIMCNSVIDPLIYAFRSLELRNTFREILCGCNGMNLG
T2 sequence (P32245 whole entry): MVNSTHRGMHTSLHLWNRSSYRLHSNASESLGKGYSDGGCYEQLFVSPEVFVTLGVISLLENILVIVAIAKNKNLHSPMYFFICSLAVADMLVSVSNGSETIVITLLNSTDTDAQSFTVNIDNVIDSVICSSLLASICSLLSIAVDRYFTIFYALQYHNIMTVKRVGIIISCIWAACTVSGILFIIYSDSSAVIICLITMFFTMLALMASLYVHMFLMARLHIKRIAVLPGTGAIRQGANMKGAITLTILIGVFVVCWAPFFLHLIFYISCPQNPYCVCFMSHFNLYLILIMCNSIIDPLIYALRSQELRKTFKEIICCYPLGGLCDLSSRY
T1 sequence (Q01726 whole entry): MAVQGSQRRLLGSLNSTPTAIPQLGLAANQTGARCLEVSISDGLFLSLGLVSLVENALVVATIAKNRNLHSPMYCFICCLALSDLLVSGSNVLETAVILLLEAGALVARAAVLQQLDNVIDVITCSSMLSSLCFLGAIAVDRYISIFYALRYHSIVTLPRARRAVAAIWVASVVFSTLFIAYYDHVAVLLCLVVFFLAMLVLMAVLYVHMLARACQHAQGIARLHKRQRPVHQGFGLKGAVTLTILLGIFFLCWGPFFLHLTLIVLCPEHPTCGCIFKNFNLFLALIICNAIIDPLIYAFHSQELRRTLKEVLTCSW

Work on `CC(=O)N[C@H]1CSSC[C@@H](C(=O)N2CCC[C@H]2C(=O)N2CCC[C@H]2C(=O)N[C@@H](CCCCN)C(=O)N[C@@H](CC(=O)O)C(=O)NCCC(=O)N[C@@H](Cc2ccc(O)cc2)C(=O)NCC(=O)N[C@@H](CCCNC(=N)N)C(=O)N[C@@H](CCCCN)C(=O)N[C@@H](CCCCN)C(=O)N[C@@H](CCCNC(=N)N)C(=O)N[C@@H](CCCNC(=N)N)C(=O)N[C@@H](CCCNC(=N)N)C(=O)N[C@@H](CCCNC(=N)N)C(=O)N[C@@H](CCCNC(=N)N)C(=O)N[C@@H](CCC(N)=O)C(N)=O)NC(=O)[C@H](C)NC(=O)[C@H](Cc2c[nH]c3ccccc23)NC(=O)[C@H](CCCNC(=N)N)NC(=O)[C@@H](Cc2ccc3ccccc3c2)NC(=O)[C@H](Cc2c[nH]cn2)NC(=O)[C@H](CCC(=O)O)NC1=O` yielded an EC50 [1] of 7.5 nM, a Kb [2] of 7.61 nM and an EC50 [3] of 51.7 nM. The Kb [4] was 12.2 nM.
For `CCCC[C@H](NC(=O)[C@H](CCCNC(=N)N)NC(=O)[C@H](CCCNC(=N)N)NC(=O)[C@H](CCCNC(=N)N)NC(=O)[C@H](CCC(N)=O)NC(=O)[C@H](CCCNC(=N)N)NC(=O)[C@H](CCCNC(=N)N)NC(=O)[C@H](CCCCN)NC(=O)[C@H](CCCCN)NC(=O)[C@H](CCCNC(=N)N)NC(=O)CNC(=O)[C@@H](N)Cc1ccc(O)cc1)C(=O)N[C@H]1CC(=O)NCCCC[C@@H](C(N)=O)NC(=O)[C@H](Cc2c[nH]c3ccccc23)NC(=O)[C@H](CCCNC(=N)N)NC(=O)[C@@H](Cc2ccc3ccccc3c2)NC(=O)[C@H](Cc2c[nH]cn2)NC1=O`, the Kb [2, 5] was 105 nM and the Kb [4, 6] was 4500 nM.
For `CC(=O)N[C@H]1CSSC[C@@H](C(=O)N2CCC[C@H]2C(=O)N2CCC[C@H]2C(=O)N[C@@H](CCCCN)C(=O)N[C@@H](CC(=O)O)C(=O)NCCC(=O)N[C@@H](CCCNC(=N)N)C(=O)N[C@@H](CCCNC(=N)N)C(=O)N[C@@H](CCCCN)C(=O)N[C@@H](CCCNC(=N)N)C(=O)N[C@@H](CCCNC(=N)N)C(=O)N[C@@H](CCC(N)=O)C(=O)N[C@@H](CCCNC(=N)N)C(=O)N[C@@H](CCCNC(=N)N)C(=O)N[C@@H](CCCNC(=N)N)C(N)=O)NC(=O)[C@H](C)NC(=O)[C@H](Cc2ccc3ccccc3c2)NC(=O)[C@H](CCCNC(=N)N)NC(=O)[C@@H](Cc2ccc3ccccc3c2)NC(=O)[C@H](Cc2c[nH]cn2)NC(=O)[C@H](CCC(=O)O)NC1=O`, the EC50 [1] was 88.2 nM, the Kb [2] was 17.4 nM and the EC50 [3] was 514 nM. The Kb [4] was 10.6 nM.
`CC(=O)N[C@H]1CSSC[C@@H](C(=O)N2CCC[C@H]2C(=O)N2CCC[C@H]2C(=O)N[C@@H](CCCCN)C(=O)N[C@@H](CC(=O)O)C(=O)NCCC(=O)N[C@@H](Cc2ccc(O)cc2)C(=O)NCC(=O)N[C@@H](CCCNC(=N)N)C(=O)N[C@@H](CCCCN)C(=O)N[C@@H](CCCCN)C(=O)N[C@@H](CCCNC(=N)N)C(=O)N[C@@H](CCCNC(=N)N)C(=O)N[C@@H](CCC(N)=O)C(=O)N[C@@H](CCCNC(=N)N)C(=O)N[C@@H](CCCNC(=N)N)C(=O)N[C@@H](CCCNC(=N)N)C(N)=O)NC(=O)[C@H](C)NC(=O)[C@H](Cc2cccc3ccccc23)NC(=O)[C@H](CCCNC(=N)N)NC(=O)[C@@H](Cc2ccc3ccccc3c2)NC(=O)[C@H](Cc2c[nH]cn2)NC(=O)[C@H](CCC(=O)O)NC1=O` gave an EC50 [1] of 43.3 nM, a Kb [2] of 5.87 nM and an EC50 [3] of 1290 nM. It also gave a Kb [4] of 215 nM.
Molecule `CC(=O)N[C@H]1CSSC[C@@H](C(=O)N2CCC[C@H]2C(=O)N2CCC[C@H]2C(=O)N[C@@H](CCCCN)C(=O)N[C@@H](CC(=O)O)C(=O)NCCC(=O)N[C@@H](CCCNC(=N)N)C(=O)N[C@@H](CCCNC(=N)N)C(=O)N[C@@H](CCCNC(=N)N)C(=O)N[C@@H](CCCNC(=N)N)C(=O)N[C@@H](CCCNC(=N)N)C(=O)N[C@@H](CCC(N)=O)C(=O)N[C@@H](CCCNC(=N)N)C(=O)N[C@@H](CCCNC(=N)N)C(=O)N[C@@H](CCCNC(=N)N)C(N)=O)NC(=O)[C@H](C)NC(=O)[C@H](Cc2ccc3ccccc3c2)NC(=O)[C@H](CCCNC(=N)N)NC(=O)[C@@H](Cc2ccc3ccccc3c2)NC(=O)[C@H](Cc2c[nH]cn2)NC(=O)[C@H](CCC(=O)O)NC1=O` has an EC50 [1] of 35.2 nM, a Kb [2] of 12.6 nM and an EC50 [3] of 199 nM. It also gave a Kb [4] of 22.9 nM.
Work on `CC(=O)N[C@H]1CSSC[C@@H](C(=O)N2CCC[C@H]2C(=O)N2CCC[C@H]2C(=O)N[C@@H](CCCCN)C(=O)N[C@@H](CC(=O)O)C(N)=O)NC(=O)[C@H](C)NC(=O)[C@H](Cc2csc3ccccc23)NC(=O)[C@H](CCCNC(=N)N)NC(=O)[C@@H](Cc2ccc3ccccc3c2)NC(=O)[C@H](Cc2c[nH]cn2)NC(=O)[C@H](CCC(=O)O)NC1=O` [Ac-c(Cys-Glu-His-D-2-Nal-Arg-Bal-Ala-Cys)-Pro-Pro-Lys-Asp-NH2] (Ac-CEH[d2Nal]R[Bta]ACPPKD-NH2; disulfide 1-8) yielded an EC50 [1] of 690 nM, a Kb [2] of 4.56 nM and an EC50 [3] of 177 nM. For the same molecule, the Kb [4] was 70.7 nM.
`CCCC[C@H](NC(C)=O)C(=O)N[C@H]1CSSC[C@@H](C(=O)NCCC(=O)NCC(=O)N[C@@H](CCCNC(=N)N)C(=O)N[C@@H](CCCNC(=N)N)C(=O)N[C@@H](CCCCN)C(=O)N[C@@H](CCCNC(=N)N)C(=O)N[C@@H](CCCNC(=N)N)C(=O)N[C@@H](CCC(N)=O)C(=O)N[C@@H](CCCNC(=N)N)C(=O)N[C@@H](CCCNC(=N)N)C(=O)N[C@@H](CCCNC(=N)N)C(N)=O)NC(=O)[C@H](Cc2c[nH]c3ccccc23)NC(=O)[C@H](CCCNC(=N)N)NC(=O)[C@@H](Cc2ccccc2)NC(=O)[C@H](Cc2c[nH]cn2)NC(=O)[C@@H](C)NC1=O` gave an EC50 [1] of 2.36 nM, an EC50 [2] of 0.26 nM and an EC50 [3] of 500 nM. The EC50 [4] was 2.74 nM.
With `CCCC[C@H](NC(C)=O)C(=O)N[C@H]1CC(=O)NCCCC[C@@H](C(=O)NCCC(=O)N[C@@H](Cc2ccc(O)cc2)C(=O)NCC(=O)N[C@@H](CCCNC(=N)N)C(=O)N[C@@H](CCCCN)C(=O)N[C@@H](CCCCN)C(=O)N[C@@H](CCCNC(=N)N)C(=O)N[C@@H](CCCNC(=N)N)C(=O)N[C@@H](CCC(N)=O)C(=O)N[C@@H](CCCNC(=N)N)C(=O)N[C@@H](CCCNC(=N)N)C(=O)N[C@@H](CCCNC(=N)N)C(N)=O)NC(=O)[C@H](Cc2c[nH]c3ccccc23)NC(=O)[C@H](CCCNC(=N)N)NC(=O)[C@@H](Cc2ccc3ccccc3c2)NC(=O)[C@H](Cc2c[nH]cn2)NC1=O` the Kb [2, 5] was 4.07 nM and the Kb [4, 6] was 220 nM.
`CCCC[C@H](NC(=O)COCCOCCNC(=O)[C@H](CCCNC(=N)N)NC(=O)[C@H](CCCNC(=N)N)NC(=O)[C@H](CCCNC(=N)N)NC(=O)[C@H](CCC(N)=O)NC(=O)[C@H](CCCNC(=N)N)NC(=O)[C@H](CCCNC(=N)N)NC(=O)[C@H](CCCCN)NC(=O)[C@H](CCCCN)NC(=O)[C@H](CCCNC(=N)N)NC(=O)CNC(=O)[C@@H](N)Cc1ccc(O)cc1)C(=O)N[C@H]1CC(=O)NCCCC[C@@H](C(N)=O)NC(=O)[C@H](Cc2c[nH]c3ccccc23)NC(=O)[C@H](CCCNC(=N)N)NC(=O)[C@@H](Cc2ccc3ccccc3c2)NC(=O)[C@H](Cc2c[nH]cn2)NC1=O` gave a Kb [2, 5] of 16.8 nM and a Kb [4, 6] of 395 nM.
In the case of `CCCC[C@H](N)C(=O)N[C@H]1CC(=O)NCCCC[C@@H](C(=O)NCCC(=O)N[C@@H](Cc2ccc(O)cc2)C(=O)NCC(=O)N[C@@H](CCCNC(=N)N)C(=O)N[C@@H](CCCCN)C(=O)N[C@@H](CCCCN)C(=O)N[C@@H](CCCNC(=N)N)C(=O)N[C@@H](CCCNC(=N)N)C(=O)N[C@@H](CCC(N)=O)C(=O)N[C@@H](CCCNC(=N)N)C(=O)N[C@@H](CCCNC(=N)N)C(=O)N[C@@H](CCCNC(=N)N)C(N)=O)NC(=O)[C@H](Cc2c[nH]c3ccccc23)NC(=O)[C@H](CCCNC(=N)N)NC(=O)[C@@H](Cc2ccc3ccccc3c2)NC(=O)[C@H](Cc2c[nH]cn2)NC1=O`, the Kb [2, 5] is reported as 18.5 nM and the Kb [4, 6] is reported as 207 nM.
`CCCC[C@H](NC(C)=O)C(=O)N[C@H]1CC(=O)NCCCC[C@@H](C(=O)N2CCC[C@H]2C(=O)N2CCC[C@H]2C(=O)N[C@@H](CCCCN)C(=O)N[C@@H](CC(=O)O)C(=O)N[C@@H](Cc2ccc(O)cc2)C(=O)NCC(=O)N[C@@H](CCCNC(=N)N)C(=O)N[C@@H](CCCCN)C(=O)N[C@@H](CCCCN)C(=O)N[C@@H](CCCNC(=N)N)C(=O)N[C@@H](CCCNC(=N)N)C(=O)N[C@@H](CCC(N)=O)C(=O)N[C@@H](CCCNC(=N)N)C(=O)N[C@@H](CCCNC(=N)N)C(=O)N[C@@H](CCCNC(=N)N)C(N)=O)NC(=O)[C@H](Cc2c[nH]c3ccccc23)NC(=O)[C@H](CCCNC(=N)N)NC(=O)[C@@H](Cc2ccc3ccccc3c2)NC(=O)[C@H](Cc2c[nH]cn2)NC1=O` showed a Kb [2, 5] of 22.8 nM and a Kb [4, 6] of 14.1 nM.
`CC(=O)N[C@H]1CSSC[C@@H](C(=O)N2CCC[C@H]2C(=O)N2CCC[C@H]2C(=O)N[C@@H](CCCCN)C(=O)N[C@@H](CC(=O)O)C(=O)NCCOCCOCC(=O)N[C@@H](Cc2ccc(O)cc2)C(=O)NCC(=O)N[C@@H](CCCNC(=N)N)C(=O)N[C@@H](CCCCN)C(=O)N[C@@H](CCCCN)C(=O)N[C@@H](CCCNC(=N)N)C(=O)N[C@@H](CCCNC(=N)N)C(=O)N[C@@H](CCC(N)=O)C(=O)N[C@@H](CCCNC(=N)N)C(=O)N[C@@H](CCCNC(=N)N)C(=O)N[C@@H](CCCNC(=N)N)C(N)=O)NC(=O)CNC(=O)[C@H](Cc2c[nH]c3ccccc23)NC(=O)[C@H](CCCNC(=N)N)NC(=O)[C@@H](Cc2ccc3ccccc3c2)NC(=O)[C@H](Cc2c[nH]cn2)NC(=O)[C@H](CCC(=O)O)NC1=O` showed a Kb [2, 5] of 1.49 nM and a Kb [4, 6] of 17.7 nM.
For `CC(=O)N[C@H]1CSSC[C@@H](C(=O)N2CCC[C@H]2C(=O)N2CCC[C@H]2C(=O)N[C@@H](CCCCN)C(=O)N[C@@H](CC(=O)O)C(=O)N[C@@H](Cc2ccc(O)cc2)C(=O)NCC(=O)N[C@@H](CCCNC(=N)N)C(=O)N[C@@H](CCCCN)C(=O)N[C@@H](CCCCN)C(=O)N[C@@H](CCCNC(=N)N)C(=O)N[C@@H](CCCNC(=N)N)C(=O)N[C@@H](CCC(N)=O)C(=O)N[C@@H](CCCNC(=N)N)C(=O)N[C@@H](CCCNC(=N)N)C(=O)N[C@@H](CCCNC(=N)N)C(N)=O)NC(=O)CNC(=O)[C@H](Cc2c[nH]c3ccccc23)NC(=O)[C@H](CCCNC(=N)N)NC(=O)[C@@H](Cc2ccc3ccccc3c2)NC(=O)[C@H](Cc2c[nH]cn2)NC(=O)[C@H](CCC(=O)O)NC1=O`, the Kb [2, 5] was 26 nM and the Kb [4, 6] was 233 nM.
